Columns and labels:
Streptopain (speB) = Streptopain (speB) (Streptococcus pyogenes, UniProt P0C0J0); type: biochemical, S. pyogenes
neutrophils = test: Flow cytometry of skin of Q-VD-OPh-treated mice; type: in vivo; settings: Q-VD-OPh i.p.; unwounded skin; vs vehicle controls
Procedure: Flow Cytometry. Cell suspensions were prepared by digesting mouse skin tissue in a cocktail consisting of Liberase TL (Roche, 5401020001), DNase I (Sigma, DN25) and antibiotics (Invitrogen, 15140) in RPMI 1640 (Gibco, 11875093). For FACS, cells were washed and first viability stained using the Zombie Aqua dye (BioLegend, 423101). […] Finally, cells were resuspended in BD stabilizing fixative prior to FACS. All flow cytometry experiments were performed on a BD LSR II and downstream analysis of data was performed using Cytobank.

ASC specks = test: ASC speck formation in ASC-Citrine mice (in vivo FLI, PuLSA assay)
IL-1β = test: Serum IL-1β levels after S. aureus skin inoculation; type: in vivo, mice; settings: days 1 and 3
Procedure: (§1) Serum IL-1β and TNF levels. Serum IL-1β and TNF protein levels (pg/mL) were measured from serum collected on days 1 and 3 after S. aureus skin inoculation±Q-VD-OPH treatment using Bio-Plex protein assays and normalized to total protein, according to the manufacturer's recommendations (Bio-Rad).

S. pyogenes strain Xen20 = type: cell-based; settings: 10, 100 and 1,000 μg/mL; vs vehicle
mouse neutrophils = test: Neutrophil cultures with live S. aureus ± caspase inhibitors; settings: Q-VD-OPH 10 μg/mL, live S. aureus 6 hours
[1] = tested on: monocytes, macrophages and neutrophils isolated from the infected skin; test: Flow cytometry of single-cell suspensions from CA-MRSA-infected skin; type: in vivo, mice
Procedure: Flow cytometry. 10-mm skin punch biopsies were collected, minced and enzymatically digested in 3 mL RPMI containing 100 μg/mL DNaseI (Sigma-Aldrich) and 1.67 Wunsch U/ml Liberase TL (Roche) for 1 hour at 37° C. and shaken at 140 rpm. Single-cell suspensions were obtained after filtering the digested samples through a 40-μm cell filter using a 3 mL syringe plunger and cells were then washed in RPMI. […] The cells were further labeled for intracellular pMLKL, which was detected via anti-pMLKL mAb that was biotinylated with Biotin conjugation/Fast/Type A kit (Abcam), as per manufacturer's instructions, along with other intracellular mAbs against IL-1β and TNF (Supplemental Table S1). […] For immunophenotyping of Langerhans cells and monocyte-derived dendritic cells (DCs), cells were first gated on CD45^+ and then CD207^+CD103^− (Langerhans cells) and CD45^+CD11c^+CD115^+ monocyte-derived DCs (FIG. 11), modified from previously described methods (61). The absolute numbers of the respective cell populations were calculated as (Total number of live cells X [% of cell population/100]).

TNF = test: Serum TNF levels after S. aureus skin inoculation; type: in vivo, mice; settings: days 1 and 3; vs untreated
Procedure: as §1

[2] = Q-VD-OPH treated TNF^−/− mice, day 1
[3] = Q-VD-OPH treated WT mice, day 1
[4] = TNF^−/− mice, day 1, vs untreated
[5] = WT mice, infected skin day 1, vs untreated

Streptopain (speB), sequence (P0C0J0 146-398 limits assumed): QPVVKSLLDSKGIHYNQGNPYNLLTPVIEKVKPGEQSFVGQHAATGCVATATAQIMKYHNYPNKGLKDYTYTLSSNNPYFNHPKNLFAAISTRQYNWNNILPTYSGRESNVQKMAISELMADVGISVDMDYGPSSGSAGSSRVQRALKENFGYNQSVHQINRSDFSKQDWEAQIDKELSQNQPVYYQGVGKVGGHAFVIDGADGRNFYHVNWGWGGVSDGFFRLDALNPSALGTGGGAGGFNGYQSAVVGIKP

## CC(C)[C@H](NC(=O)c1ccc2ccccc2n1)C(=O)N[C@@H](CC(=O)O)C(=O)COc1c(F)cccc1F [Q-VD-OPH, Quinoline-val-asp-difluorophenoxymethyl ketone]
Streptopain (speB); 2 hours at 37° C.
  physical conformational changes or degradation of speB (protein blot): did not induce any physical conformational changes or cause degradation
Streptopain (speB); 20 hours
  activity of speB on gelatinase activity or elastin proteolysis: did not affect the activity
neutrophils
  neutrophil levels in the skin: higher neutrophil levels in the skin
ASC specks; ASC-Citrine mice, 6 hours following Q-VD-OPH administration
  in vivo ASC speck formation (in vivo FLI signals): virtually inhibited all in vivo ASC speck formation
ASC specks; infected skin, day 1, treated vs untreated
  percentage of total ASC-Citrine expression in live cells: not significantly different
ASC specks; infected skin, day 1, vs untreated
  percentage of cells with ASC-Specks (PuLSA assay): substantially reduced percentage of cells with ASC-Specks
IL-1β
  serum levels of IL-1β: decreased serum levels of IL-1β
S. pyogenes strain Xen20
  in vitro absorbance and bioluminescence: no differences in in vitro absorbance and bioluminescence
Mouse neutrophils
  necroptosis (western blot for pMLKL and MLKL): necroptosis was increased
Mouse neutrophils; Emricasan 9 μg/mL
  percentages of TNF+ neutrophils: 25.47%
Mouse neutrophils; Emricasan 9 μg/mL, no significant differences vs no treatment
  viable cells (Zombie UV negative cells): ~50%
[1]; [2]
  pMLKL+ MFI: 540
  pMLKL+ total cells, absolute numbers: 1.5×10^4 cells
  pMLKL+ total cells, percentage: 15%
[1]; [3]
  pMLKL+ MFI: 2250
  pMLKL+ total cells, absolute numbers: 1.0×10^5 cells
  pMLKL+ total cells, percentage: 81%
[1]; TNF^−/− mice, day 1
  percentages and absolute number of macrophages: statistically increased
[1]; TNF^−/− mice, day 1, compared with Q-VD-OPH treated WT mice
  percentages and absolute number of monocytes: no increase
[1]; TNF^−/− mice, day 1, vs TNF^−/− untreated
  necroptosis (pMLKL+) total leukocytes: MFI, percentages and absolute numbers: significantly greater
[1]; [4]
  early apoptotic (Annexin V+) neutrophils: significantly decreased
  early apoptotic cells (Annexin V+) of total leukocytes: significantly decreased
[1]; TNF^−/− mice, infected skin day 1, vs untreated or Q-VD-OPH treated WT mice
  percentages and absolute number of neutrophils: significantly reduced
[1]; WT mice, day 1, especially macrophages and neutrophils but not monocytes
  intracellular pro-IL-1β: MFI and percentages of total leukocytes (CD45+pro-IL-1β+): increased mean fluorescence intensity (MFI) and percentages of total leukocytes
[1]; WT mice, day 1, vs untreated
  TNF+ macrophages: significantly greater
  TNF+ monocytes: significantly greater
  TNF+ neutrophils: significantly greater
  TNF+ total leukocytes (CD45+TNF+): MFI, percentages and absolute number: significantly greater
  early apoptotic (Annexin V+) monocytes, percentages and absolute numbers: significantly decreased
  early apoptotic (Annexin V+) neutrophils, percentages and absolute numbers: significantly decreased
  early apoptotic cells (Annexin V+) of total leukocytes, percentages and absolute numbers: significantly decreased
  necroptosis (pMLKL+) macrophages: significantly greater
  necroptosis (pMLKL+) total leukocytes: MFI, percentages and absolute numbers: significantly greater
[1]; [5]
  percentages and absolute numbers of neutrophils: no differences
  percentages of macrophages: statistically increased
  percentages of monocytes: statistically increased
TNF
  serum TNF protein levels: increased serum TNF protein levels
